# Tests used:
# [1] = Relative solubility by turbidity in aqueous buffers of varying pH; assay type: physicochemical; conditions: for turbidity threshold (L, M, H) 7.4: HEPES pH 7.4; for turbidity threshold (L, M, H) 4.5: SIF pH 4.5; for turbidity threshold (L, M, H) 6.8: SIF pH 6.8; for turbidity threshold (L, M, H) 1.4: buffer pH 1.4 (SGF)
# Description: As an indication of relative solubility, the turbidity of compounds in aqueous solutions is assessed. To assess possible compound properties in different physiological compartments, such as stomach, intestine, and blood, a series of aqueous buffers with varying pH is used. Thus each compound is diluted into four different physiologically relevant buffers and solution turbidity is measured by spectrophotometry.
# Compounds are dissolved at a concentration of 25 mM in dimethyl sulfoxide, then serially diluted 1:1 into a 96 well plate, diluting 10 times in pure dimethyl sulfoxide, with the final well of each row a dimethyl sulfoxide blank. In an assay plate, 99 μL of appropriate buffer is added to each well, and 1 μL of each sample dilution is added to the buffer, achieving a range of final total concentrations in aqueous solutions having different pH. The buffers used are Simulated Gastric Fluid (SGF-pH 1.5) 0.5M NaCl, pH 1.5; Simulated Intestinal fluid (SIF-pH 4.5 and pH 6.8) 0.05M NaH2PO4, pH 4.5 and 6.8; and Hepes Buffer (HEPES-pH 7.4) 10 mM HEPES, 150 mM NaCl, pH 7.4. Control compounds pyrene, estriol and propranolol HCl are also assessed. Plates are spun and then mixed for 1 minute, and the absorbance is read using a Tecan Safire II to read wavelengths in the visible range (490, 535, and 650 nm) at four locations per well, reflecting the degree of turbidity present. The average optical density for each wavelength in each well is graphed vs. compound concentration, and the concentration at which the curve crosses a threshold O.D. of 0.01 for each wavelength is reported as the endpoint turbidity assay result. The average of the three wavelengths is used to compare turbidity of compounds. Compounds are considered to have low solubility if the threshold concentration is <31.3 04, moderate solubility if the threshold concentration is 31.3 μM to 250 μM, and high solubility if the threshold concentration is >250 μM.
# CYP2C19 = CYP2C19 (Homo sapiens, UniProt P33261); test: CYP2C19 inhibition (fluorescent substrate); assay type: in vitro ADME; conditions: CYP2C19, CEC substrate; read-out: Cyp IC50 2C19
# CYP2C19, sequence (P33261 whole entry): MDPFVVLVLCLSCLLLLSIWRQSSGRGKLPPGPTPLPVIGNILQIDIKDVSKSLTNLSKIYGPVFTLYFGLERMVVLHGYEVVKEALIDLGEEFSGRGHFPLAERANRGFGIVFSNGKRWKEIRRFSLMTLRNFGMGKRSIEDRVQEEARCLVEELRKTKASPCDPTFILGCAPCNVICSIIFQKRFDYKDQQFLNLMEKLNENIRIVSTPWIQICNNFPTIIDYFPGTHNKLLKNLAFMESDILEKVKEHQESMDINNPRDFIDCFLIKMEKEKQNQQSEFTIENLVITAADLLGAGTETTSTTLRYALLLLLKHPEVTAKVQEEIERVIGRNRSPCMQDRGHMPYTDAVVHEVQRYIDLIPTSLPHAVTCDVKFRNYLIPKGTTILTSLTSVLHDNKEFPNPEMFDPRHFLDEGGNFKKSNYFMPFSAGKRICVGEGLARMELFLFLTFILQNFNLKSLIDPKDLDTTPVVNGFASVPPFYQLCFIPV
# Description: (§1) CYP (Cytochrome P450) enzymes are the major drug metabolizing enzymes present in the liver. The inhibition of CYP enzyme activity (IC50) for each of CYP1A2, CYP2C19, CYP2C9, CYP2D6, CYP3A4(BFC) and CYP3A4(BQ) is determined for compounds, where inhibition of metabolism of a known substrate leads to a decrease in the fluorescence of the metabolized product. The fluorescence of the product is monitored as a function of compound concentration.
# (§2) Compounds are dissolved in dimethyl sulfoxide to a concentration of 100 mM. These are diluted 1 μL into 82 μL of acetonitrile. […] These are then serially diluted 1:1 (160 μL to 160 μL co-factor mix) for a total of 10 points. A 10 μL aliquot of this final mixture is dispensed into 384 well assay plates and incubated for 10 minutes at 37° C. […] Assay plates are incubated at 37° C. […] The signal versus compound concentration is used to determine the IC50. The enzymes and substrates for this assay are obtained from BD Biosciences.
# CYP1A2 = molecular target: T1, CYP1A2 (Homo sapiens, UniProt P05177); test: CYP1A2 inhibition (fluorescent substrate); assay type: in vitro ADME; conditions: CYP1A2, CEC substrate; read-out: Cyp IC50 1A2
# T1 sequence (P05177 1-516): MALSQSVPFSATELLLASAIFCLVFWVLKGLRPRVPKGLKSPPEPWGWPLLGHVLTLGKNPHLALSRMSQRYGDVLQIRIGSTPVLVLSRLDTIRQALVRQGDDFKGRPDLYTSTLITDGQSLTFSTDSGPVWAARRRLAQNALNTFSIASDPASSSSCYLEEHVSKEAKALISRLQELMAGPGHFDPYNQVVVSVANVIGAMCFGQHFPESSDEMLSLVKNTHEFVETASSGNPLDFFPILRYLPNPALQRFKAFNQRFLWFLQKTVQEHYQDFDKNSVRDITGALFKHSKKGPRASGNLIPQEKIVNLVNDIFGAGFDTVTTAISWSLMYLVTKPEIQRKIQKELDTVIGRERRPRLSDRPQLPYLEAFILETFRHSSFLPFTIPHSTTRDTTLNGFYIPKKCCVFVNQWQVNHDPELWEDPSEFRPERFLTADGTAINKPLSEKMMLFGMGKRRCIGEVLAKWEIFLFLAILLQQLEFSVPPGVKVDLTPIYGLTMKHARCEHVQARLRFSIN
# Description: as §1, §2
# B-Raf = B-Raf (Homo sapiens, UniProt P15056); test: B-Raf biochemical kinase inhibition (AlphaScreen, biotin-MEK1 substrate); conditions: 100 μM ATP
# B-Raf, sequence (P15056 whole entry): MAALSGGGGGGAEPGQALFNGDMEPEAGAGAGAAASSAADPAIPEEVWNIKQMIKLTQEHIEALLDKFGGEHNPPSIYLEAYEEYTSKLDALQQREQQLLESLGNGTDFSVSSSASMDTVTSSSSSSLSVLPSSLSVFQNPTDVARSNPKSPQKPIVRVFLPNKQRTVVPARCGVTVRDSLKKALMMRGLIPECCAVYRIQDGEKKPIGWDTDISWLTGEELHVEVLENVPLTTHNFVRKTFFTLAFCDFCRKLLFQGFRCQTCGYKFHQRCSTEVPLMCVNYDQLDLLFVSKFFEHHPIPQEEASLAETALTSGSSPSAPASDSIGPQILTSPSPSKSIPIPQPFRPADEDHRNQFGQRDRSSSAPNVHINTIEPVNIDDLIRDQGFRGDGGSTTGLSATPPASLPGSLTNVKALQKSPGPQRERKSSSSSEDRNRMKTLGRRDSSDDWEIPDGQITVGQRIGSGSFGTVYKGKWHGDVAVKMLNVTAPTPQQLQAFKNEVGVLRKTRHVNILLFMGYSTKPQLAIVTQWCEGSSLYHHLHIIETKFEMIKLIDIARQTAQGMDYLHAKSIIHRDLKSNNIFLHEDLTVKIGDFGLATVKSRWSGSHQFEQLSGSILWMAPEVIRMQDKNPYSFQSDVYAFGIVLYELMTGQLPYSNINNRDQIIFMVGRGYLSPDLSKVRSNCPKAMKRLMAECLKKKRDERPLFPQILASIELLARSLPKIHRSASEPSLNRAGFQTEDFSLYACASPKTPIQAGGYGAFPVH
# Description: (§3) Compounds to be tested are diluted in dimethyl sulfoxide to a concentration of 0.1 mM. These are serially diluted 15 μL into 30 μL of dimethyl sulfoxide seven times in 96 well plates for a total of 8 dilution points, and for each dilution point 1 μL is added to a well of an assay plate. […] The reaction is started with addition of 10 μL of 200 μM ATP (i.e. final 100 μM ATP). […] The plates are incubated for 3 hours at room temperature and read on Envision reader (Perkin Elmer). […] The signal vs. compound concentration is used to determine the IC50.
# B-Raf V600E = B-Raf V600E (Homo sapiens, UniProt P15056, V600E); test: B-Raf V600E biochemical kinase inhibition (AlphaScreen, biotin-MEK1 substrate); conditions: 100 μM ATP
# B-Raf V600E, sequence (P15056 whole entry V600E): as the sequence (P15056 whole entry) above, with V600E counted along it
# Description: as §3
# CYP3A4(BFC) = CYP3A4(BFC) (Homo sapiens, UniProt P08684); test: CYP3A4(BFC) inhibition (fluorescent substrate); assay type: in vitro ADME; conditions: read-out: Cyp IC50 3A4(BFC)
# CYP3A4(BFC), sequence (P08684 whole entry): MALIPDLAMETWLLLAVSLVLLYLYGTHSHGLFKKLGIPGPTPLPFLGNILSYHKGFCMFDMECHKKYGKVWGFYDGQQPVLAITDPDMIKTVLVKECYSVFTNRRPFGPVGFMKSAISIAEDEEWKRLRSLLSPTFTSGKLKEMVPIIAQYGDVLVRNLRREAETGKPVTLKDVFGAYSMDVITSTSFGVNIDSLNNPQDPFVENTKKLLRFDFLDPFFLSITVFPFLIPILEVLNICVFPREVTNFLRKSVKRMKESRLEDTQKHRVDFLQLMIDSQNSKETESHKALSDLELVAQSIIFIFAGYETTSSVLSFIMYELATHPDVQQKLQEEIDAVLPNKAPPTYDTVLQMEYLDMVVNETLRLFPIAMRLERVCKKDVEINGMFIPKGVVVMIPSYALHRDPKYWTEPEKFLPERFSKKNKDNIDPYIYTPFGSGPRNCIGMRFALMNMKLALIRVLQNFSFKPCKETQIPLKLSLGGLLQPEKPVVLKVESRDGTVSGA
# Description: as §2, with “CYP (Cytochrome P450) enzymes are the major drug metabolizing enzymes present in the liver. The inhibition of CYP enzyme activity (IC50) for each of CYP1A2, CYP2C19, CYP2C9, CYP2D6, CYP3A4(BFC) and CYP3A4(BQ) is determined for compounds, where inhibition of metabolism of a known substrate leads to a decrease in the fluorescence of the metabolized product. The fluorescence of the product is monitored as a function of compound concentration. Compounds” for “Compounds”
IC50 (CYP2C19),IC50 (CYP1A2),IC50 (B-Raf),IC50 (B-Raf V600E),IC50 (CYP3A4(BFC)),SMILES,"turbidity threshold (L, M, H) 7.4 [1]","turbidity threshold (L, M, H) 4.5 [1]","turbidity threshold (L, M, H) 6.8 [1]","turbidity threshold (L, M, H) 1.4 [1]"
> 10 µM,> 10 µM,< 100 nM,< 10 nM,–,"COc1ccnc2[nH]cc(C(=O)c3c(F)ccc(NS(=O)(=O)c4cc(F)ccc4F)c3F)c12 [P-2022, N-[2,4-Difluoro-3-(4-methoxy-1H-pyrrolo[2,3-b]pyridine-3-carbonyl)-phenyl]-2,5-difluoro-benzenesulfonamide]",H (high solubility if the threshold concentration is >250 μM),M (moderate solubility if the threshold concentration is 31.3 μM to 250 μM),M (moderate solubility if the threshold concentration is 31.3 μM to 250 μM),H (high solubility if the threshold concentration is >250 μM)
> 10 µM,> 10 µM,< 100 nM,< 10 nM,> 10 µM,"N#Cc1cnc2[nH]cc(C(=O)c3c(F)ccc(NS(=O)(=O)c4c(F)cccc4F)c3F)c2c1 [P-2029, N-[3-(5-Cyano-1H-pyrrolo[2,3-b]pyridine-3-carbonyl)-2,4-difluoro-phenyl]-2,6-difluoro-benzenesulfonamide]",–,–,–,–
> 10 µM,> 10 µM,< 1000 nM,< 100 nM,> 10 µM,"COc1ccnc2[nH]cc(C(=O)c3c(F)ccc(NS(=O)(=O)c4c(F)cccc4F)c3F)c12 [P-2031, N-[2,4-Difluoro-3-(4-methoxy-1H-pyrrolo[2,3-b]pyridine-3-carbonyl)-phenyl]-2,6-difluoro-benzenesulfonamide]",–,–,–,–
> 10 µM,> 10 µM,< 100 nM,< 10 nM,> 10 µM,"O=C(c1c(F)ccc(NS(=O)(=O)c2c(F)cccc2F)c1F)c1c[nH]c2nccc(Cl)c12 [P-2033, N-[3-(4-Chloro-1H-pyrrolo[2,3-b]pyridine-3-carbonyl)-2,4-difluoro-phenyl]-2,6-difluoro-benzenesulfonamide]",–,–,–,–
> 10 µM,> 10 µM,< 100 nM,< 10 nM,> 10 µM,"N#Cc1ccnc2[nH]cc(C(=O)c3c(F)ccc(NS(=O)(=O)c4c(F)cccc4F)c3F)c12 [P-2037, N-[3-(4-Cyano-1H-pyrrolo[2,3-b]pyridine-3-carbonyl)-2,4-difluoro-phenyl]-2,6-difluoro-benzenesulfonamide]",–,–,–,–

# The next lines start with the compound.
SMILES,IC50 (CYP2C19),IC50 (CYP1A2),IC50 (B-Raf),IC50 (B-Raf V600E),IC50 (CYP3A4(BFC)),"turbidity threshold (L, M, H) 7.4 [1]","turbidity threshold (L, M, H) 4.5 [1]","turbidity threshold (L, M, H) 6.8 [1]","turbidity threshold (L, M, H) 1.4 [1]"
"N#Cc1ccnc2[nH]cc(C(=O)c3c(F)ccc(NS(=O)(=O)c4cc(F)ccc4F)c3F)c12 [P-2036, N-[3-(4-Cyano-1H-pyrrolo[2,3-b]pyridine-3-carbonyl)-2,4-difluoro-phenyl]-2,5-difluoro-benzenesulfonamide]",> 10 µM,> 10 µM,< 10 nM,< 10 nM,> 10 µM,–,–,–,–
"N#Cc1ccnc2[nH]cc(C(=O)c3c(F)ccc(NS(=O)(=O)c4cccc(F)c4)c3F)c12 [P-2039, N-[3-(4-Cyano-1H-pyrrolo[2,3-b]pyridine-3-carbonyl)-2,4-difluoro-phenyl]-3-fluoro-benzenesulfonamide]",> 10 µM,> 10 µM,< 10 nM,< 10 nM,> 10 µM,–,–,–,–
"N#Cc1cnc2[nH]cc(C(=O)c3cccc(NS(=O)(=O)c4c(F)cccc4F)c3F)c2c1 [P-2054, N-[3-(5-Cyano-1H-pyrrolo[2,3-b]pyridine-3-carbonyl)-2-fluoro-phenyl]-2,6-difluoro-benzenesulfonamide]",> 10 µM,> 10 µM,< 100 nM,< 10 nM,> 10 µM,–,–,–,–
"N#Cc1cnc2[nH]cc(C(=O)c3c(F)ccc(NS(=O)(=O)c4cccnc4)c3F)c2c1 [P-2072, Pyridine-3-sulfonic acid [3-(5-cyano-1H-pyrrolo[2,3-b]pyridine-3-carbonyl)-2,4-difluoro-phenyl]-amide]",> 10 µM,> 10 µM,< 10 nM,< 10 nM,5 to 10 µM,–,–,–,–
"CCCS(=O)(=O)Nc1ccc(F)c(C(=O)c2c[nH]c3ncc(-c4ccc(S(=O)(=O)NC5CC5)cc4)cc23)c1F [P-2168, N-Cyclopropyl-4-{3-[2,6-difluoro-3-(propane-1-sulfonylamino)-benzoyl]-1H-pyrrolo[2,3-b]pyridin-5-yl}-benzenesulfonamide]",5 to 10 µM,> 10 µM,< 10 nM,< 10 nM,–,L (low solubility if the threshold concentration is <31.3 04),L (low solubility if the threshold concentration is <31.3 04),L (low solubility if the threshold concentration is <31.3 04),L (low solubility if the threshold concentration is <31.3 04)
"CCCS(=O)(=O)Nc1ccc(F)c(C(=O)c2c[nH]c3ncc(-c4ccc(S(=O)(=O)CC)cc4)cc23)c1F [P-2218, Propane-1-sulfonic acid {3-[5-(4-ethanesulfonyl-phenyl)-1H-pyrrolo[2,3-b]pyridine-3-carbonyl]-2,4-difluoro-phenyl}-amide]",–,> 10 µM,< 100 nM,< 100 nM,> 10 µM,–,–,–,–
"CCCS(=O)(=O)Nc1ccc(F)c(C(=O)c2c[nH]c3ncc(-c4cnc(N5CCCC5)nc4)cc23)c1F [P-2219, Propane-1-sulfonic acid {2,4-difluoro-3-[5-(2-pyrrolidin-1-yl-pyrimidin-5-yl)-1H-pyrrolo[2,3-b]pyridine-3-carbonyl]-phenyl}-amide]",< 5 µM,> 10 µM,< 100 nM,< 100 nM,–,L (low solubility if the threshold concentration is <31.3 04),L (low solubility if the threshold concentration is <31.3 04),L (low solubility if the threshold concentration is <31.3 04),M (moderate solubility if the threshold concentration is 31.3 μM to 250 μM)

# Reference: patent publication US8198273B2, “Compounds and methods for kinase modulation, and indications therefor” (Plexxikon Inc., priority 2009, dated 2012)
